± gives the standard deviation.
What was measured:
[1] = chemical recovery from spiked human plasma; higher = better extraction; details: pooled human plasma
[2] = chemical recovery into PDMS from spiked human plasma; higher = better extraction; details: pooled human plasma, extraction method: PES with PDMS
[3] = chemical recovery by SPE of plasma after PDMS sampling; higher = better extraction; details: pooled human plasma, extraction method: HLB SPE of plasma after PES
[4] = extraction method: PES+SPE (3 d PDMS equilibration then HLB SPE)
[5] = extraction method: SPE only (HLB 96-well)
[6] = extraction method: SPE only (HLB 96-well), PES comparison experiment
[7] = extraction method: solvent precipitation (ACN + hexane)
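For chemical recovery by SPE of plasma after PDMS sampling in this document: over 400 spiked chemicals quantified by LC-HRMS or GC-HRMS via internal standard calibration, recovery relative to spike mix added to unspiked plasma extract to correct matrix effects.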

| SMILES | chemical recovery [1, 4] | chemical recovery [1, 5] | chemical recovery [1, 6] | chemical recovery [1, 7] | chemical recovery into PDMS ([2]; equilibration time (d): 1) | chemical recovery into PDMS ([2]; equilibration time (d): 3) | chemical recovery into PDMS ([2]; equilibration time (d): 6) | chemical recovery by SPE of plasma ([3]; equilibration time (d): 1) | chemical recovery by SPE of plasma ([3]; equilibration time (d): 3) | chemical recovery by SPE of plasma ([3]; equilibration time (d): 6) |
| --- | --- | --- | --- | --- | --- | --- | --- | --- | --- | --- |
| Cc1c(C(C)C)c(=O)n(-c2ccccc2)n1C [Propyphenazone] | 48.4 ± 9.9% | 44.6 ± 2.6% | 47.3 ± 6.5% | 69.31 ± 0.67% | 17.3 ± 1.9% | 22 ± 0.25% | 23 ± 2.1% | 4.36 ± 0.18% | 3.89 ± 0.79% | 2.01 ± 0.19% |
| Cc1cccc(C)c1N(Cn1cccn1)C(=O)CCl [Metazachlor] | 42.8 ± 5% | 38.6 ± 2.5% | 53.5 ± 7.4% | 66.2 ± 2.7% | 40.1 ± 1.9% | 42.9 ± 2.5% | 42.7 ± 2.1% | 1.5 ± 0.11% | 1.57 ± 0.29% | 0.82 ± 0.13% |
| CCOP(=O)(OCC)OCC [Triethylphosphate] |  | 18.9 ± 3.4% | 16.6 ± 7.5% |  |  |  | 15 ± 4.8% | 12.1 ± 7% | 15.8 ± 2.1% | 6.74 ± 1.1% |
| Cc1cc(C2CCCCC2)n(O)c(=O)c1 [Ciclopirox] |  |  | 46.2 ± 16% |  | 22 ± 5% | 20 ± 2.6% | 21.7 ± 2.5% | 2.83 ± 1.3% | 0.638 ± 1.1% | 0.232 ± 0.4% |
| COCN(COC)c1nc(N(COC)COC)nc(N(COC)COC)n1 [Hexa(methoxymethyl)melamine] | 38.3 ± 8.8% |  | 7.63 ± 2.7% | 72.5 ± 2.8% | 39.4 ± 2.9% | 45.8 ± 2.6% | 41.9 ± 5.7% | 7.64 ± 6.8% | 3.37 ± 3% | 0.745 ± 1% |
| O=C(O)c1ccc(Cl)cc1Cl [2,4-Dichlorobenzoic acid] |  | 47.3 ± 5.1% | 57 ± 6.3% | 67 ± 4.5% | 0.268 ± 0.04% | 0.296 ± 0.12% | 0.344 ± 0.065% | 47.5 ± 9.1% | 46.9 ± 8.3% | 47 ± 2.5% |
| CCNc1nc(NC(C)C)nc(SC)n1 [Ametryn] |  | 41.6 ± 3.1% | 44.1 ± 4.6% | 72.1 ± 3.1% | 13.2 ± 4.9% | 20.6 ± 7.4% | 23.9 ± 3.2% | 24.3 ± 4.5% | 9.36 ± 2% | 4.74 ± 0.84% |
| CCCCCCCCCCCC(=O)N(CCO)CCO [Lauryl diethanolamide] |  |  | 51.6 ± 7.8% |  | 16.8 ± 3% | 24.3 ± 2.5% | 26.3 ± 2.7% | 24.9 ± 2.9% | 18.5 ± 3.1% | 13.2 ± 2.9% |
| CN(C)CCOC(c1ccccc1)c1ccccc1 [Diphenhydramine] | 0.391 ± 0.13% | 44.7 ± 3% | 50.3 ± 5.5% | 52.4 ± 4.6% | 0.00464 ± 0.0041% | 0.0114 ± 0.013% |  | 0.353 ± 0.014% | 0.464 ± 0.19% | 0.236 ± 0.039% |
| O=P(OCCCl)(OCCCl)OCCCl [Tris(2-chloroethyl)phosphate] | 52.1 ± 4.5% | 47.4 ± 2.1% | 52.3 ± 5.5% | 69.9 ± 2.8% | 37.5 ± 1.4% | 39.8 ± 1.5% | 40.8 ± 2.8% | 15 ± 1.6% | 15 ± 1.8% | 9.84 ± 0.88% |
| OC(c1ccc(Cl)cc1)(c1ccc(Cl)cc1)C(Cl)(Cl)Cl [Dicofol] |  | 0.108 ± 0.017% | 14.4 ± 2.8% | 23.1 ± 0.7% |  | 56.9 ± 18% |  | 11.5 ± 8.1% | 15 ± 1.5% | 15.2 ± 3.4% |
| O=C1CCCC=CCCCCCCCCCC1 [Velvione] |  | 0.134 ± 0.12% |  |  | 41.7 ± 2.9% | 43.1 ± 12% | 40.2 ± 13% | 1.02 ± 7.1% |  |  |
| Cc1cc(=O)oc2cc(N)ccc12 [7-Amino-4-methylcoumarin] | 42.6 ± 3.4% |  | 53.5 ± 9.9% | 70.4 ± 2% | 12.65 ± 0.075% | 17.9 ± 2.4% | 18.9 ± 2.1% | 39.4 ± 4.9% | 34.9 ± 3.5% | 28.3 ± 3.2% |

— the supplement of paper PMC10702517
